# Values of other authors in article PMC6006448 (ACS Chemical Biology, 2018).
# System: Rac1 and Cdc42
structure (smiles),measurement,value
COc1ccc2cc([C@@H](C)C(=O)O)ccc2c1 [R-naproxen],action on Rac1 and Cdc42 in a cellular setting,inhibitor
